Test results from article PMC4710522, “A Novel Triazolopyridine-Based Spleen Tyrosine Kinase Inhibitor That Arrests Joint Inflammation” (PLoS ONE, 2016).
Where two headings read alike, the source gives them in different places.

How the values were obtained:
[1] = plasma compound exposure in rat CIA study; assay type: in vivo; settings: for AUC(0-t): female, Lewis, rat, plasma, po, read-out: AUC0-24h in plasma after the last day of dosing
Experimental: Female Lewis rats (150 – 170g; Charles River Laboratories) were house standard shoebox cages, fed Harlan-Tekald diet and water ad libitum and maintained on a 12h light/dark cycle. For induction of arthritis rats were anesthetized with isofluorane and their entire dorsal area shaved. Rats were injected (intradermal) with 100 μl of equal volumes of collagen (Chrondrex, Redmond, WA) and IFA (Sigma Chemicals, St. Louis, MO) emulsion in 10 sites across the dorsal region. At disease onset 11 days following immunization animals were randomized into groups based on their ankle measurements and test article administration was initiated. Rats were dosed orally with vehicle (20% Captisol®), Indomethacin (Sigma Chemicals, St. Louis, MO, 2mg/kg) or CC-509 (15, 25mg/kg QD or 15mg/kg BID) in a dose volume of 5ml/kg. […] On the last day of the study animals were split into 2 cohorts and bleed twice via tail bleed under isofluorane anesthesia and a third terminal bleed following CO2 asphyxiation to obtain a time course of plasma compound exposure at 30minutes, 1, 2, 4, 8 and 24h after the last dose of CC-509.

PIK3C3_h = target: T1, PIK3C3_h (Homo sapiens, UniProt Q8NEB9); experiment: SelectScreen kinase assay; assay type: biochemical; settings: KM ATP, read-out: % control
T1 construct: purchased Life Technologies (Invitrogen) SelectScreen, Z'-LYTE / Adapta
Experimental: (§1) Syk kinase mode of inhibition studies, including parameters described in Fig 1, were conducted on the LC3000 platform by Caliper Life Sciences (Hopkinton, MA) according to standard protocols developed by the supplier. […] Non-kinase enzyme assays and GPCR, ion channel, and transporter binding assays were run by CEREP (France). Non-GLP manual patch clamp hERG assays were run by ChanTest (Cleveland, Ohio). Vivid® Assay kits (Life Technologies) were used to measure the cytochrome P450 inhibition of the compound against CYP3A, CYP2C9, CYP2C19, CYP2D6, and CYP1A2, as described.
(§2) Kinase activity was measured using either the Z’-Lyte® or the Adapta® protocols as part of the SelectScreen™ profiling service offered at Life Technologies (Grand Island, NY). For the single point measurements (Part A), CC-509 was kept constant at 3 µM while ATP concentrations [ATP] used were at the KM for ATP (KM ATP) for that specific enyzme, at 10 or 100 µM ATP (10 ATP or 100 ATP, respectively), as indicated. Values expressed as percent control (% control) relative to DMSO-only wells (uninhibited, 100%).

PI4K-alpha_h = target: T2, PI4K-alpha_h (Homo sapiens, UniProt P42356); experiment: SelectScreen kinase assay; assay type: biochemical; settings: 10 µM ATP, read-out: % control
T2 construct: purchased Life Technologies (Invitrogen) SelectScreen, Z'-LYTE / Adapta
Experimental: as §1, §2

PI4K-beta_h = target: T3, PI4K-beta_h (Homo sapiens, UniProt Q9UBF8); experiment: SelectScreen kinase assay; assay type: biochemical; settings: KM ATP, read-out: % control
T3 construct: purchased Life Technologies (Invitrogen) SelectScreen, Z'-LYTE / Adapta
Experimental: as §1, §2

PI3_Kinase-gamma_h = target: T4, PI3_Kinase-gamma_h (Homo sapiens, UniProt P48736); experiment: SelectScreen kinase assay; assay type: biochemical; settings: KM ATP, read-out: % control
T4 construct: purchased Life Technologies (Invitrogen) SelectScreen, Z'-LYTE / Adapta
Experimental: as §1, §2

PI3_Kinase-delta_h = target: T5, PI3_Kinase-delta_h (Homo sapiens, UniProt O00329); experiment: SelectScreen kinase assay; assay type: biochemical; settings: KM ATP, read-out: % control
T5 construct: purchased Life Technologies (Invitrogen) SelectScreen, Z'-LYTE / Adapta
Experimental: as §1, §2

SPHK2_h = target: T6, SPHK2_h (Homo sapiens, UniProt Q9NRA0); experiment: SelectScreen kinase assay; assay type: biochemical; settings: 10 µM ATP, read-out: % control
T6 construct: purchased Life Technologies (Invitrogen) SelectScreen, Z'-LYTE / Adapta
Experimental: as §1, §2

PI3K-C2 alpha_h = target: T7, PI3K-C2 alpha_h (Homo sapiens, UniProt O00443); experiment: SelectScreen kinase assay; assay type: biochemical; settings: KM ATP, read-out: % control
T7 construct: purchased Life Technologies (Invitrogen) SelectScreen, Z'-LYTE / Adapta
Experimental: as §1, §2

SPHK1_h = target: T8, SPHK1_h (Homo sapiens, UniProt Q9NYA1); experiment: SelectScreen kinase assay; assay type: biochemical; settings: KM ATP, read-out: % control
T8 construct: purchased Life Technologies (Invitrogen) SelectScreen, Z'-LYTE / Adapta
Experimental: as §1, §2

PI3_Kinase-alpha_h = target: T9, PI3_Kinase-alpha_h (Homo sapiens, UniProt P42336); experiment: SelectScreen kinase assay; assay type: biochemical; settings: KM ATP, read-out: % control
T9 construct: purchased Life Technologies (Invitrogen) SelectScreen, Z'-LYTE / Adapta
Experimental: as §1, §2

PI3K-C2 beta_h = target: T10, PI3K-C2 beta_h (Homo sapiens, UniProt O00750); experiment: SelectScreen kinase assay; assay type: biochemical; settings: 10 µM ATP, read-out: % control
T10 construct: purchased Life Technologies (Invitrogen) SelectScreen, Z'-LYTE / Adapta
Experimental: as §1, §2

EphA3_h = target: T11, EphA3_h (Homo sapiens, UniProt P29320); experiment: SelectScreen kinase assay; assay type: biochemical; settings: KM ATP, read-out: % control
T11 construct: purchased Life Technologies (Invitrogen) SelectScreen, Z'-LYTE / Adapta
Experimental: as §1, §2

CK2-alpha2_h = target: T12, CK2-alpha2_h (Homo sapiens, UniProt P19784); experiment: SelectScreen kinase assay; assay type: biochemical; settings: KM ATP, read-out: % control
T12 construct: purchased Life Technologies (Invitrogen) SelectScreen, Z'-LYTE / Adapta

PKC-iota_h = target: T13, PKC-iota_h (Homo sapiens, UniProt P41743); experiment: SelectScreen kinase assay; assay type: biochemical; settings: KM ATP, read-out: % control
T13 construct: purchased Life Technologies (Invitrogen) SelectScreen, Z'-LYTE / Adapta

[2] = target: T14, Tel-Syk fusion protein in HEK293 cells (Homo sapiens, UniProt P41212+P43405); experiment: Tel-Syk biomarker assay (in-cell western, Syk Y525/526 phosphorylation); assay type: cell-based
T14 construct: human Syk (NM_003177.5) kinase domain corresponding to amino acids 341–612; myristoylation motif (N); expressed in transfected cells
Experimental: HEK293 T-REx™ (Life Technologies, Grand Island, NY) stably transfected with human TEL-Syk (cloned as described prior section DNA constructs) were plated on black poly-D-lysine coated 96-well plates (BD Biosciences, San Diego, CA) in culture media containing tetracycline-free fetal bovine serum (Clontech, MountainView, CA) for 16 hours in a tissue culture incubator. Tel-Syk expression was induced for 6 hours in fresh growth media containing 1 μg/ml tetracycline (Sigma Chemicals, St. Louis, MO). […] Plates were blocked with Odyssey Blocking Buffer for 90 minutes at room temperature and incubated overnight at 4°C on a rotating platform with rabbit phospho-Syk (1:1000) and mouse V5 (1:2500) primary antibodies diluted in Odyssey Blocking Buffer. The plates were washed 5 times with 1X PBS + 0.1% Tween-20, incubated for 1 hour at room temperature with anti-rabbit IR680 (1:1000) and anti-mouse IR800CW (1:1000) secondary antibodies diluted in Odyssey Blocking Buffer, and washed 5 additional times with 1X PBS + 0.1% Tween-20 at room temperature. The plates were scanned on the Li-Cor Odyssey instrument (Li-Cor Biosciences, Lincoln, NE) in the 700 and 800 channels.
For the TEL-Syk assay, the intensity values for the 700 and 800 channel were exported as text files in ActivityBase (IDBS, Guildford, UK) to derive the ratios that reflect kinase activity. […]

PKC-eta_h = target: T15, PKC-eta_h (Homo sapiens, UniProt P24723); experiment: SelectScreen kinase assay; assay type: biochemical; settings: KM ATP, read-out: % control
T15 construct: purchased Life Technologies (Invitrogen) SelectScreen, Z'-LYTE / Adapta

Syk = Syk (Homo sapiens, UniProt P43405); experiment: Syk kinase mode of inhibition studies (Caliper LC3000); assay type: biochemical
Experimental: as §1

human KDR in Hek cells = target: T16, human KDR in Hek cells (Homo sapiens, UniProt P35968); experiment: KDR cellular selectivity assay (VEGF-induced KDR autophosphorylation); assay type: cell-based
T16 construct: host or cells: HEK293
T16 sequence (P35968 20-1356): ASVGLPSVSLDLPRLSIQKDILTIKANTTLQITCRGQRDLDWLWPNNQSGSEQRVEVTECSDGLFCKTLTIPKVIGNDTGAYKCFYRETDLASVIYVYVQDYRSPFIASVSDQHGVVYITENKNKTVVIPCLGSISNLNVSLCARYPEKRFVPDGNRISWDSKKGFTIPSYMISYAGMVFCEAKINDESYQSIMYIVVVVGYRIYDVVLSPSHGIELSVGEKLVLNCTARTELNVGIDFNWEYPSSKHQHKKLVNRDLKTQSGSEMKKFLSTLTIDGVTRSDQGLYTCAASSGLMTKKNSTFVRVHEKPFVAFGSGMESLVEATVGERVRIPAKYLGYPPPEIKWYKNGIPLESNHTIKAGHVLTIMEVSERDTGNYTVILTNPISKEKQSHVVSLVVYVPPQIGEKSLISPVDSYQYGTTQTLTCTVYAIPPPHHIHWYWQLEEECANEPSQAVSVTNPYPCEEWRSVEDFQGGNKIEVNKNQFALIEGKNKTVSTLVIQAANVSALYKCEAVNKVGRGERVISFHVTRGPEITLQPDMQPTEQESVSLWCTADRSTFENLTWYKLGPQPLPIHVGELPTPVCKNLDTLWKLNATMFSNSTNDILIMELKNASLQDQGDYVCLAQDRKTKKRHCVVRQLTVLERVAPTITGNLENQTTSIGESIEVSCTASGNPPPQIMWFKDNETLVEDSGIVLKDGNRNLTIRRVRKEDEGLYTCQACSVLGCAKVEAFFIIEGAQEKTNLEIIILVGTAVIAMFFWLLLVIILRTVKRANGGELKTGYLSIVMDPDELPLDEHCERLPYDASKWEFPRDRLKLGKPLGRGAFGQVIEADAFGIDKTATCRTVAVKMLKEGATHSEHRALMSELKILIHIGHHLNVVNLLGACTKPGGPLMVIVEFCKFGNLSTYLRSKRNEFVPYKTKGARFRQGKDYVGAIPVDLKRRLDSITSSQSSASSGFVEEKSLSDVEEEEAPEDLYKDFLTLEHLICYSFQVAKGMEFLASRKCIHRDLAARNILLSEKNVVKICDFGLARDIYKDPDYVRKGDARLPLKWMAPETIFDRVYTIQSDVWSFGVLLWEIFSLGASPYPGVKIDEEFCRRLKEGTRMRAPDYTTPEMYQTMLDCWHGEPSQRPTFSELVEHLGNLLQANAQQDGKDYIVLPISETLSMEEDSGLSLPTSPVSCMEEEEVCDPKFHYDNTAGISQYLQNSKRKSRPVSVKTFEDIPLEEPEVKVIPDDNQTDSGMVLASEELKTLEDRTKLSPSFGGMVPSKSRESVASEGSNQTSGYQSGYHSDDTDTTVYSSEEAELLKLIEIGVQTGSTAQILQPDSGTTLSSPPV
Experimental: HEK KDR cells were plated on 96-well flat bottom plates for 16 hours in a tissue culture incubator. […] Briefly, cells on plates were lysed with Mesoscale lysis buffer (containing phosphatase/ proteinase inhibitors and 0.05% SDS), frozen at -80°C for 2 hours, and then placed on an orbital shaker at 4°C for 16 hours. Cell lysate was transferred to a blocked phopsho-KDR plate, incubated at room temperature for 2 hours, washed twice, and blotted dry. The detection antibody was added to all wells on the plate, incubated for 2 hours at room temperature on an orbital shaker, and plate was washed three times. Diluted Mesoscale detection solution was added to each well and the plates were read on the Sector Imager instrument (Mesoscale, Gaithersberg, MD).
For the neutrophil, macrophage, KDR, and JAK1/3 assays, raw values were exported into ActivityBase to calculate percent inhibition. All IC50 calculations were generated using XLfit (IDBS, Guildford, UK) algorithm 205 within Excel.

T13 sequence (P41743 whole entry): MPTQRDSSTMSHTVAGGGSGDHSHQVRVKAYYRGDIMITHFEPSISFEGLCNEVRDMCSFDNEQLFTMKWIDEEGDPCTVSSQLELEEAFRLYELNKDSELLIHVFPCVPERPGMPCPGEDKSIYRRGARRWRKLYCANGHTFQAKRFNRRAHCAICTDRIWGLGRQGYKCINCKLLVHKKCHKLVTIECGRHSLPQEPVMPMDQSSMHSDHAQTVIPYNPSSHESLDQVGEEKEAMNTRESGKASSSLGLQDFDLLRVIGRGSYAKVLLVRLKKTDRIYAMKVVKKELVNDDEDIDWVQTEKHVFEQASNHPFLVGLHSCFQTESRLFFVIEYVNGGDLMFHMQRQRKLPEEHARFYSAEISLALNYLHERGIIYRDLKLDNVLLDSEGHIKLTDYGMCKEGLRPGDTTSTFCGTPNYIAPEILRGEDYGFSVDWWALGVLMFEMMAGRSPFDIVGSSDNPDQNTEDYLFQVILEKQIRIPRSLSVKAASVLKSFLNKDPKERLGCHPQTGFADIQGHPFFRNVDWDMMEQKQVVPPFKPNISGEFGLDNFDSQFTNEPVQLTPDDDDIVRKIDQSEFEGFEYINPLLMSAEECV
T1 sequence (Q8NEB9 whole entry): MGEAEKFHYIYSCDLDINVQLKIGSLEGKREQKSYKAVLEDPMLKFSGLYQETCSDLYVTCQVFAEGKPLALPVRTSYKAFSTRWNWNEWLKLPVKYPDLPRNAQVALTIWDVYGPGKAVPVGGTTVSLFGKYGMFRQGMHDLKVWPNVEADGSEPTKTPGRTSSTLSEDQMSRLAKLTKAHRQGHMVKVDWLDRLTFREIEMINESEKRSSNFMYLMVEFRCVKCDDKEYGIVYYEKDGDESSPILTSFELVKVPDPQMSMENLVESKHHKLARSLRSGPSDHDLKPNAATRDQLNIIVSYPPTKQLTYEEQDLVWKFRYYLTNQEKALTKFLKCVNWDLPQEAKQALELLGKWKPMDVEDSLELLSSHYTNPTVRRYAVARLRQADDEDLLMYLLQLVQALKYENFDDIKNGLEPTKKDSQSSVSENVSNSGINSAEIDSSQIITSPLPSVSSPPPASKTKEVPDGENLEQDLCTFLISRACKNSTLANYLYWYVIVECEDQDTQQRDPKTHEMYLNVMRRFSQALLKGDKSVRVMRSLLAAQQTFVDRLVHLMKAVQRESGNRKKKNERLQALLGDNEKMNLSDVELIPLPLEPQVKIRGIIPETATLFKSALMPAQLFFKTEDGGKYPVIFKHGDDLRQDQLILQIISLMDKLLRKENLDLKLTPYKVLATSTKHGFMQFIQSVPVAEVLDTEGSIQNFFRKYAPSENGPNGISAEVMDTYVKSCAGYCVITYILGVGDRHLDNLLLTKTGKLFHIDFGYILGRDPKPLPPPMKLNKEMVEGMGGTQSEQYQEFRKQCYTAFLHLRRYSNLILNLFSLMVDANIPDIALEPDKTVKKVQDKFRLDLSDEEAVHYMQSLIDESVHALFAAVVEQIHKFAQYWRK
T14 sequence (P41212+P43405 fused): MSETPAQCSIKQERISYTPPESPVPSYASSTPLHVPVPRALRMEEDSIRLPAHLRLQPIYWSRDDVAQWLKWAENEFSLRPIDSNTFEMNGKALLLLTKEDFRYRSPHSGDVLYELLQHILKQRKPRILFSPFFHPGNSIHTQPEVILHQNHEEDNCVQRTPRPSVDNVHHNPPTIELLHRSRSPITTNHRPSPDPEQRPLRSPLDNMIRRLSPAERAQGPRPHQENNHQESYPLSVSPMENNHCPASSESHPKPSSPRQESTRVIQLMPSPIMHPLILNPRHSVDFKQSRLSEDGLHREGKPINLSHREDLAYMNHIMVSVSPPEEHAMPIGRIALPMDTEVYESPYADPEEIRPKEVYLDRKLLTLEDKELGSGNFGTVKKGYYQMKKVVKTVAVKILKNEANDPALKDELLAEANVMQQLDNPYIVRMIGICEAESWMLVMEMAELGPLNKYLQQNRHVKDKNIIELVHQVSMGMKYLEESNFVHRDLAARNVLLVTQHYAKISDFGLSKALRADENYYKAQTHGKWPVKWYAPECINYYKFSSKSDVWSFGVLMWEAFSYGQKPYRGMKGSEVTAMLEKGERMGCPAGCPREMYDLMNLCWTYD
T7 sequence (O00443 whole entry): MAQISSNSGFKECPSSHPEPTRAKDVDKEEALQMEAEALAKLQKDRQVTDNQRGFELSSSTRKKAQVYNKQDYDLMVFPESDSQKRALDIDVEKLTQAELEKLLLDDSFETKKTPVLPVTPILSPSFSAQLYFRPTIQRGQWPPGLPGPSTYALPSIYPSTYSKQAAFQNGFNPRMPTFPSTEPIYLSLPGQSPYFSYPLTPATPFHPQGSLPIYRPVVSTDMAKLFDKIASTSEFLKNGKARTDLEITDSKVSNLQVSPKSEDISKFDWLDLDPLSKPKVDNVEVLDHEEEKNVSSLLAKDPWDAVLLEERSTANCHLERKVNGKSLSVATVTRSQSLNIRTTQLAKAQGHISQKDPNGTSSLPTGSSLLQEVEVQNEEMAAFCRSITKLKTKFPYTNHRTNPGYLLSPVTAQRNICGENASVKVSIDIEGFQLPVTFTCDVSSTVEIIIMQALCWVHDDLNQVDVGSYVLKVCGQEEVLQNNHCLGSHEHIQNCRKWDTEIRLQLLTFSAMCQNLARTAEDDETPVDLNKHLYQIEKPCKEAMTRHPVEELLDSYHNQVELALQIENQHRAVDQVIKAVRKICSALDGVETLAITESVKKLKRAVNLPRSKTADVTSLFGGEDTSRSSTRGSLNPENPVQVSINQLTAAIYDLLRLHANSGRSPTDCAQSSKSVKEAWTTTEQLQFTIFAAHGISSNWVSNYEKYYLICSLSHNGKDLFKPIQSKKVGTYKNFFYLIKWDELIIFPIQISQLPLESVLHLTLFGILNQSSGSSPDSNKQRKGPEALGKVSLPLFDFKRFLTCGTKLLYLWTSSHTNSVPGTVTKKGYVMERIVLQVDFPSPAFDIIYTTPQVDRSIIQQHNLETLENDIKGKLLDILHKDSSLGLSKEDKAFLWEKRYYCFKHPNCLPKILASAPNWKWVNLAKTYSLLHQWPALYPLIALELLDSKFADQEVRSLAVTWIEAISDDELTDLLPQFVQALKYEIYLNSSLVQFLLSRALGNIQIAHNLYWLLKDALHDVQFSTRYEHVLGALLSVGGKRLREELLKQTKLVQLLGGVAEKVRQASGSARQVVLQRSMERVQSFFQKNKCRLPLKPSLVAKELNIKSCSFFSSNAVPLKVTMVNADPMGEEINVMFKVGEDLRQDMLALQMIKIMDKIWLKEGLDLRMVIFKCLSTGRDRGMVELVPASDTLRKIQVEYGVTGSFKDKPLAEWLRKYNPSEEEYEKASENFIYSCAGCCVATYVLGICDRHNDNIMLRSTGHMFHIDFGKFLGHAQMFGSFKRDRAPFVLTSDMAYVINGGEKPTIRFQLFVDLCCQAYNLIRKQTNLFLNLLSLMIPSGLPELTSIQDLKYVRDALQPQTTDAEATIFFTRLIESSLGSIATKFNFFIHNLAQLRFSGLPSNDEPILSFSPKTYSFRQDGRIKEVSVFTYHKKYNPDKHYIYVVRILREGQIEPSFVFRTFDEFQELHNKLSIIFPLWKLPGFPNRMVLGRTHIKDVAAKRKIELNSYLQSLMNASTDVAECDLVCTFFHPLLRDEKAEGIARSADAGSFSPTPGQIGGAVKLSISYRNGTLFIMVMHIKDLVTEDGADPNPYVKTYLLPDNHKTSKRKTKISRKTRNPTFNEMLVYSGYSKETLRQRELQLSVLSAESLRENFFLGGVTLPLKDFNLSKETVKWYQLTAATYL

c1cc(CC2CCOCC2)n2nc(Nc3ccc4c(NC5CCOCC5)n[nH]c4c3)nc2c1 [CC-509, [3-(2H-3,4,5,6-tetrahydropyran-4-ylamino)(1H-indazol-6-yl)][5-(2H-3,4,5,6-tetrahydropyran-4-ylmethyl)(2H-1,2,4-triazolo[1,5-a]pyridin-2-yl)]amine]
AUC(0-t) ([1]; 15 mg/kg, 15 mg/kg b.i.d.): 60 µM·h
AUC(0-t) ([1]; 15 mg/kg, 15 mg/kg q.d.): 22 µM·h
AUC(0-t) ([1]; 25 mg/kg, 25 mg/kg q.d.): 45 µM·h
minimal efficacious exposure ([1]; rat CIA): 45 µM·h
remaining activity at 3 µM (PIK3C3_h): 79%
remaining activity at 3 µM (PI4K-alpha_h): 120%
remaining activity at 3 µM (PI4K-beta_h): 77%
remaining activity at 3 µM (PI3_Kinase-gamma_h): 61%
remaining activity at 3 µM (PI3_Kinase-delta_h): 58%
remaining activity at 3 µM (SPHK2_h): 105%
remaining activity at 3 µM (PI3K-C2 alpha_h): 95%
remaining activity at 3 µM (SPHK1_h): 96%
remaining activity at 3 µM (PI3_Kinase-alpha_h): 81%
remaining activity at 3 µM (PI3K-C2 beta_h): 98%
remaining activity at 3 µM (EphA3_h): 98%
remaining activity at 3 µM (CK2-alpha2_h): 97%
remaining activity at 3 µM (PKC-iota_h): 88%
IC50 [2]: 610 ± 190 nM
remaining activity at 3 µM (PKC-eta_h): 102%
Ki (Syk): 18 nM
mode of inhibition with respect to the Syk ATP binding site (Syk; based on enzyme kinetics): mixed competitive inhibitor
IC50 (human KDR in Hek cells; Hek cells): 7430 ± 3360 nM
fold difference in potency between R406 and CC-509, KDR cellular assay (human KDR in Hek cells; R406 more potent): 10 fold
